Data: the NIST ThermoML archive (doi:10.1021/je025610o)

Key:
[1] = xn = mol fraction of the nth substance listed; settings: 100 kPa, Liquid; for thermal conductivity: Hot wire method
[2] = 100 kPa, Liquid, Capillary tube (Ostwald / Ubbelohde) method

OCCO [1,2-ethanediol] + O
[1]
Settings	mass density [kg/m3]	thermal conductivity [W/m/K]	viscosity [mPa·s]
296.4 K, x1 = 0.25	1068	–	–
296.45 K, x1 = 0.25	–	–	3.69
297.05 K, x1 = 0.5	1094	–	7.61
297.35 K, x1 = 0.75	1106	–	12.3
298.5 K, x1 = 0.75	–	0.269	–
303.4 K, x1 = 0.25	–	0.391	–
312.3 K, x1 = 0.5	–	0.316	–
313.05 K, x1 = 0.25	1058	–	2.29
313.05 K, x1 = 0.5	1083	–	4.49
313.05 K, x1 = 0.75	1094	–	6.97
323.6 K, x1 = 0.25	–	0.4	–
324.2 K, x1 = 0.75	–	0.272	–
324.4 K, x1 = 0.5	–	0.314	–
333.05 K, x1 = 0.25	1045	–	1.47
333.1 K, x1 = 0.5	1069	–	2.62
333.1 K, x1 = 0.75	1080	–	3.88
347.5 K, x1 = 0.75	–	0.277	–
347.7 K, x1 = 0.5	–	0.324	–
348.6 K, x1 = 0.25	–	0.416	–
353.05 K, x1 = 0.25	1030	–	0.99
353.05 K, x1 = 0.5	1054	–	1.7
353.05 K, x1 = 0.75	1065	–	2.42
371.9 K, x1 = 0.75	–	0.281	–
372 K, x1 = 0.25	–	0.423	–
372.8 K, x1 = 0.5	–	0.33	–
373.45 K, x1 = 0.75	1049	–	1.62
374.85 K, x1 = 0.25	1013	–	–
376.05 K, x1 = 0.5	1035	–	–
378.85 K, x1 = 0.25	–	–	0.689
380.05 K, x1 = 0.5	–	–	1.07
383.35 K, x1 = 0.75	1041	–	1.37
390.25 K, x1 = 0.5	1023	–	–
393.2 K, x1 = 0.75	1033	–	1.18
394.25 K, x1 = 0.5	–	–	0.87
395.9 K, x1 = 0.25	–	0.428	–
396.8 K, x1 = 0.75	–	0.28	–
396.95 K, x1 = 0.25	995.5	–	–
397 K, x1 = 0.5	–	0.332	–
400.95 K, x1 = 0.25	–	–	0.518
403.15 K, x1 = 0.75	1025	–	1.02
404.75 K, x1 = 0.75	1023	–	–
406.05 K, x1 = 0.5	1010	–	–
407.75 K, x1 = 0.75	–	–	0.978
410.05 K, x1 = 0.5	–	–	0.706
413.15 K, x1 = 0.75	1016	–	0.903
417.15 K, x1 = 0.25	977.4	–	–
418.35 K, x1 = 0.75	1012	–	–
419.9 K, x1 = 0.75	–	0.279	–
421 K, x1 = 0.25	–	0.432	–
421.15 K, x1 = 0.25	–	–	0.418
421.7 K, x1 = 0.5	–	0.32	–
422.35 K, x1 = 0.75	–	–	0.806
423.55 K, x1 = 0.5	994.5	–	–
427.55 K, x1 = 0.5	–	–	0.573
431.55 K, x1 = 0.25	964.9	–	–
431.95 K, x1 = 0.75	1000	–	–
435.55 K, x1 = 0.25	–	–	0.366
435.95 K, x1 = 0.75	–	–	0.691
436.65 K, x1 = 0.5	982.5	–	–
440.65 K, x1 = 0.5	–	–	0.5
441.6 K, x1 = 0.75	–	0.276	–
445.85 K, x1 = 0.75	987	–	–
449.85 K, x1 = 0.75	–	–	0.594

OCCOCCO [diethylene glycol]
[2]
Settings	viscosity [mPa·s]
294.2 K	35.1
313.05 K	15.1
333.05 K	7.64
353.05 K	4.41
373.6 K	2.76
393.4 K	1.92
413.25 K	1.41
428.15 K	1.15
